According to ChEMBL document CHEMBL1201862, “PubChem BioAssay data set” (2004):
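48-hour exposure; five concentrations; linearly interpolated endpoints. GI50 = concentration required for 50% inhibition of growth.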 Activity calls are given as the source filed them. Rule as the data show it: active = GI50 up to about 1.1 µM and inactive = higher.

Legend:
Test in all cases: NCI anticancer screen, dose series, 48 h
A498 = test system: A498
A549 = test system: A549
CAKI-1 = test system: CAKI-1
EKVX = test system: EKVX
HOP-62 = test system: HOP-62
IGROV-1 = test system: IGROV-1
MDA-MB-435 = test system: MDA-MB-435
MOLT-4 = test system: MOLT-4
NCI/ADR-RES = test system: NCI/ADR-RES
OVCAR-4 = test system: OVCAR-4
RPMI-8226 = test system: RPMI-8226
SK-MEL-2 = test system: SK-MEL-2
SK-OV-3 = test system: SK-OV-3
SNB-75 = test system: SNB-75
U-251 = test system: U-251
UACC-257 = test system: UACC-257
UACC-62 = test system: UACC-62
UO-31 = test system: UO-31
BT-549 = test system: BT-549

SMILES	GI50 (A498)	GI50 (A549)	GI50 (CAKI-1)	GI50 (EKVX)	GI50 (HOP-62)	GI50 (IGROV-1)	GI50 (MDA-MB-435)	GI50 (MOLT-4)	GI50 (NCI/ADR-RES)	GI50 (OVCAR-4)	GI50 (RPMI-8226)	GI50 (SK-MEL-2)	GI50 (SK-OV-3)	GI50 (SNB-75)	GI50 (U-251)	GI50 (UACC-257)	GI50 (UACC-62)	GI50 (UO-31)	GI50 (BT-549)
O=C(/C=C/c1cccs1)c1ccc([N+](=O)[O-])cc1	> 100 µM (inactive)	> 100 µM (inactive)	> 100 µM (inactive)	> 100 µM (inactive)	> 100 µM (inactive)	> 100 µM (inactive)	> 100 µM (inactive)	71 µM (inactive)	83.4 µM (inactive)	> 100 µM (inactive)	49.4 µM (inactive)	> 100 µM (inactive)	> 100 µM (inactive)	77.8 µM (inactive)	> 100 µM (inactive)	> 100 µM (inactive)	> 100 µM (inactive)	26.9 µM (inactive)	
COc1ccc(/C=C/c2cc(OC)c(OC)c(OC)c2)cc1O[Si](C)(C)C(C)(C)C	12.7 µM (inactive)	14 µM (inactive)	41.9 µM (inactive)	5.81 µM (inactive)	5.93 µM (inactive)	8.95 µM (inactive)	2.26 µM (inactive)	4.22 µM (inactive)		19 µM (inactive)	0.0494 µM (active)	7.8 µM (inactive)	52.7 µM (inactive)	2.03 µM (inactive)	3.11 µM (inactive)	10.4 µM (inactive)	3.35 µM (inactive)	7.31 µM (inactive)	12.1 µM (inactive)
C#CCN(CC#C)C(=O)C(=O)c1c[nH]c2ccc(OC)cc12	15.1 µM (inactive)	25.7 µM (inactive)		32.4 µM (inactive)	16.7 µM (inactive)	33 µM (inactive)	18.5 µM (inactive)	> 10 µM (inactive)	21.8 µM (inactive)	> 10 µM (inactive)	10.6 µM (inactive)		17.8 µM (inactive)	20.2 µM (inactive)	14.4 µM (inactive)	17.5 µM (inactive)	19.5 µM (inactive)	8.11 µM (inactive)	
CCCCCN(CCCCC)CC(C)(C)C(O)c1ccc(OC)c2ccccc12 (stereo not given)	14.3 µM (inactive)	9.2 µM (inactive)	11.6 µM (inactive)	12.1 µM (inactive)	22.9 µM (inactive)	2.59 µM (inactive)	10.8 µM (inactive)	3.25 µM (inactive)	7.05 µM (inactive)	11.1 µM (inactive)	4.15 µM (inactive)	18.2 µM (inactive)		20.5 µM (inactive)	9.46 µM (inactive)	13.1 µM (inactive)	12.5 µM (inactive)	2.25 µM (inactive)	
COC(=O)c1ccccc1/C=C1\Cc2ccc3c(c2C1=O)CCC3	> 100 µM (inactive)	> 100 µM (inactive)	> 100 µM (inactive)	> 100 µM (inactive)	> 100 µM (inactive)	> 100 µM (inactive)	> 100 µM (inactive)	> 100 µM (inactive)	> 100 µM (inactive)	> 100 µM (inactive)	> 100 µM (inactive)		> 100 µM (inactive)	> 100 µM (inactive)	> 100 µM (inactive)	> 100 µM (inactive)	> 100 µM (inactive)	> 100 µM (inactive)	
CC(=O)OCC1OC(Sc2nc(-c3ccc(C)cc3)c(C#N)c(=O)n2C2OC(COC(C)=O)C(OC(C)=O)C(OC(C)=O)C2OC(C)=O)C(OC(C)=O)C(OC(C)=O)C1OC(C)=O (stereo not given)	> 100 µM (inactive)	> 100 µM (inactive)	> 100 µM (inactive)	> 100 µM (inactive)	> 100 µM (inactive)	> 100 µM (inactive)		> 100 µM (inactive)	> 100 µM (inactive)		> 100 µM (inactive)	> 100 µM (inactive)	> 100 µM (inactive)	> 100 µM (inactive)	> 100 µM (inactive)	> 100 µM (inactive)	> 100 µM (inactive)	> 100 µM (inactive)	> 100 µM (inactive)
CC(O)CNC1=CC(=O)C(=O)c2ccccc21 (stereo not given)	27.7 µM (inactive)	19 µM (inactive)	18.7 µM (inactive)	18.6 µM (inactive)	18.2 µM (inactive)	13.4 µM (inactive)	11.3 µM (inactive)	23 µM (inactive)		13.2 µM (inactive)	18.2 µM (inactive)	16.4 µM (inactive)	34.5 µM (inactive)	14.9 µM (inactive)	15.8 µM (inactive)	16 µM (inactive)	12.9 µM (inactive)	17.7 µM (inactive)	
Cc1cc(NS(=O)(=O)c2ccc(/N=N/c3c(Nc4ccccc4)nn(-c4ccc(S(=O)(=O)Nc5ccncn5)cc4)c3C)cc2)no1		> 100 µM (inactive)	> 100 µM (inactive)	> 100 µM (inactive)	> 100 µM (inactive)	> 100 µM (inactive)	> 100 µM (inactive)	> 100 µM (inactive)	> 100 µM (inactive)	> 100 µM (inactive)		> 100 µM (inactive)	> 100 µM (inactive)	> 100 µM (inactive)	> 100 µM (inactive)	> 100 µM (inactive)	> 100 µM (inactive)	> 100 µM (inactive)	
CCCCCCCCCCCCCC[S+](C)C		1.68 µM (inactive)	2.61 µM (inactive)	3.01 µM (inactive)	1.67 µM (inactive)	1.12 µM (inactive)	1.91 µM (inactive)	1.23 µM (inactive)	> 10 µM (inactive)	2.4 µM (inactive)	0.601 µM (active)	2.02 µM (inactive)	4.02 µM (inactive)	1.58 µM (inactive)	1.09 µM (active)	2.45 µM (inactive)	2.22 µM (inactive)	3.07 µM (inactive)	
Cc1ccc(-c2nc(-c3cnccn3)n(C3OC(CO)C(O)C(O)C3O)n2)cc1 (stereo not given)		> 100 µM (inactive)		> 100 µM (inactive)	> 100 µM (inactive)	> 100 µM (inactive)	> 100 µM (inactive)	> 100 µM (inactive)	> 100 µM (inactive)	> 100 µM (inactive)	> 100 µM (inactive)			> 100 µM (inactive)	> 100 µM (inactive)	> 100 µM (inactive)	> 100 µM (inactive)	> 100 µM (inactive)	> 100 µM (inactive)
COc1ccc(/C(Cl)=C(\CNc2ccccn2)c2ccccc2)cc1OC	> 100 µM (inactive)	> 100 µM (inactive)	> 100 µM (inactive)	> 100 µM (inactive)	> 100 µM (inactive)	> 100 µM (inactive)	> 100 µM (inactive)	> 100 µM (inactive)	> 100 µM (inactive)	> 100 µM (inactive)	> 100 µM (inactive)	> 100 µM (inactive)	> 100 µM (inactive)	> 100 µM (inactive)	> 100 µM (inactive)	> 100 µM (inactive)	> 100 µM (inactive)	> 100 µM (inactive)	
O=[PH]1c2ccccc2Nc2ccccc21	21.7 µM (inactive)	> 100 µM (inactive)	> 100 µM (inactive)	22.4 µM (inactive)	> 100 µM (inactive)	> 100 µM (inactive)	> 100 µM (inactive)	26.2 µM (inactive)	> 100 µM (inactive)	64.7 µM (inactive)		49.9 µM (inactive)	> 100 µM (inactive)	> 100 µM (inactive)	> 100 µM (inactive)	> 100 µM (inactive)	> 100 µM (inactive)		
CCOC(=O)CCCO	> 100 µM (inactive)	> 100 µM (inactive)		> 100 µM (inactive)		> 100 µM (inactive)		> 100 µM (inactive)			> 100 µM (inactive)	> 100 µM (inactive)	> 100 µM (inactive)	71.3 µM (inactive)	> 100 µM (inactive)	> 100 µM (inactive)	> 100 µM (inactive)	> 100 µM (inactive)	
Cc1ccccc1NC(=O)Cc1csc2[n+]1C(=O)/C(=C/c1ccc([N+](=O)[O-])cc1)S2		32 µM (inactive)	25.5 µM (inactive)	22.7 µM (inactive)	33.5 µM (inactive)	25.7 µM (inactive)	30.3 µM (inactive)	25.5 µM (inactive)	42.4 µM (inactive)	12.1 µM (inactive)		29.4 µM (inactive)	> 100 µM (inactive)	19.3 µM (inactive)	29.7 µM (inactive)	37.1 µM (inactive)		18.4 µM (inactive)	13 µM (inactive)
C1CCCN(NC2=NCCO2)CC1	> 100 µM (inactive)	> 100 µM (inactive)	> 100 µM (inactive)	> 100 µM (inactive)	> 100 µM (inactive)	> 100 µM (inactive)	> 100 µM (inactive)	> 100 µM (inactive)	> 100 µM (inactive)	> 100 µM (inactive)	> 100 µM (inactive)	> 100 µM (inactive)		> 100 µM (inactive)	> 100 µM (inactive)	> 100 µM (inactive)	> 100 µM (inactive)	> 100 µM (inactive)	
CC1(C)CC2(C)CC1CC2(O)c1ccccc1 (stereo not given)	> 100 µM (inactive)	> 100 µM (inactive)	> 100 µM (inactive)		> 100 µM (inactive)	> 100 µM (inactive)	> 100 µM (inactive)	> 100 µM (inactive)		> 100 µM (inactive)			> 100 µM (inactive)	> 100 µM (inactive)	> 100 µM (inactive)	> 100 µM (inactive)	> 100 µM (inactive)	> 100 µM (inactive)	> 100 µM (inactive)
O=C1C(c2c(O)[nH]c3ccc(F)cc23)=Nc2ccccc21		> 100 µM (inactive)	> 100 µM (inactive)	> 100 µM (inactive)	46.2 µM (inactive)	1.03 µM (active)	> 100 µM (inactive)	21.1 µM (inactive)	> 100 µM (inactive)		> 100 µM (inactive)	14.5 µM (inactive)	6.24 µM (inactive)	3.21 µM (inactive)	13.3 µM (inactive)	> 100 µM (inactive)	> 100 µM (inactive)	> 100 µM (inactive)	> 100 µM (inactive)
